Reference: patent US8501936B2 (priority 2009, dated 2013)

Tests used:
human FAK = human FAK (Homo sapiens (Human), UniProt Q05397); conditions: read-out: FAK IC50
human JAK2 = human JAK2 (Homo sapiens (Human), UniProt O60674); conditions: read-out: JAK2 IC50
human JAK2, sequence (O60674 815-1132): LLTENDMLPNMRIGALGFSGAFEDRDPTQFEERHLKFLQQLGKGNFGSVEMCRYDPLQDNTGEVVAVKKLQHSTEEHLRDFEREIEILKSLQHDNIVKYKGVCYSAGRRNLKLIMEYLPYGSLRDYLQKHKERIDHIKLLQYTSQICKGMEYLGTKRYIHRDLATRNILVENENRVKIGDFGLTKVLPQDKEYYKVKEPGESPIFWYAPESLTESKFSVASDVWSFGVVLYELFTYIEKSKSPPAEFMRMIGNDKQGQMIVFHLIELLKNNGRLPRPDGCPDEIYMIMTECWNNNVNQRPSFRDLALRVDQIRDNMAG

human FAK, sequence (Q05397 whole entry): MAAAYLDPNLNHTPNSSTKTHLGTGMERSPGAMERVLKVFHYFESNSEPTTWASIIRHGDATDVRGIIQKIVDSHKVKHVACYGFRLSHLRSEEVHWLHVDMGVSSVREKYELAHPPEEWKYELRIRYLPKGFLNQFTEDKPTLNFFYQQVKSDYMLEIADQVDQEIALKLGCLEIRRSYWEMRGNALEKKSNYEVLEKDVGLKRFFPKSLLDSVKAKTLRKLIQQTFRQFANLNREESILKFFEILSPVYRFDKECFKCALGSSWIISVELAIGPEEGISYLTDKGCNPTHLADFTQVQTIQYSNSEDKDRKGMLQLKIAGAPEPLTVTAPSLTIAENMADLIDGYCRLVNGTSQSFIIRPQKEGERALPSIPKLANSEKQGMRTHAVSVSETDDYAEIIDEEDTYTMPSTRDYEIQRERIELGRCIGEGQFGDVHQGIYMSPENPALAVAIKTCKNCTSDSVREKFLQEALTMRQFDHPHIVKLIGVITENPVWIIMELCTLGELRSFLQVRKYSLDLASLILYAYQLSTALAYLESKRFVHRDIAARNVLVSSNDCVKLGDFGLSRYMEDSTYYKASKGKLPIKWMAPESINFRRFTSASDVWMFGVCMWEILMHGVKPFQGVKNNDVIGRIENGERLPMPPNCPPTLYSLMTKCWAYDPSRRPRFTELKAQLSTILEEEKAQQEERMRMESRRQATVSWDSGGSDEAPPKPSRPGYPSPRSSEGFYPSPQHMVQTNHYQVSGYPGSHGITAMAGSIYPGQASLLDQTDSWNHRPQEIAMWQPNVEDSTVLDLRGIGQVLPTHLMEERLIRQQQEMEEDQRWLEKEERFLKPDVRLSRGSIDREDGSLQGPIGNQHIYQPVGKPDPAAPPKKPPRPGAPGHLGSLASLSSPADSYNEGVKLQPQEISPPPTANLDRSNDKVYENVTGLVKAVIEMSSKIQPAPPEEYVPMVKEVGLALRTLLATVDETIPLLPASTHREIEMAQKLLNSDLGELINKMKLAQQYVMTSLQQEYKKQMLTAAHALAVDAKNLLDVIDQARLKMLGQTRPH

`CN1CCN(c2ccc(Nc3nc4c(Nc5ccccc5S(C)(=O)=O)cccn4n3)cc2)CC1` [Example 72, N(8)-(2-Methanesulfonyl-phenyl)-N(2)-[4-(4-methyl-piperazin-1-yl)-phenyl]-[1,2,4]triazolo[1,5-a]pyridine-2,8-diamine] showed an IC50 (human FAK) of 380 nM and an IC50 (human JAK2) of 8.3 nM.
`CS(=O)(=O)c1ccc(-c2cccc3nc(Nc4ccc(OCCN5CCCC5)cc4)nn23)cc1` [Example 73, [5-(4-Methanesulfonyl-phenyl)-[1,2,4]triazolo[1,5-a]pyridin-2-yl]-[4-(2-pyrrolidin-1-yl-ethoxy)-phenyl]-amine] showed an IC50 (human FAK) of 227 nM and an IC50 (human JAK2) of 2.1 nM.
With `CC(C)(C)OC(=O)N1CCN(c2ccc(Nc3nc4cccc(-c5ccc(S(C)(=O)=O)cc5)n4n3)cc2)CC1` [Example 75, 4-{4-[5-(4-Methanesulfonyl-phenyl)-[1,2,4]triazolo[1,5-a]pyridin-2-ylamino]-phenyl}-piperazine-1-carboxylic acid tert-butyl ester] the IC50 (human FAK) was 359 nM and the IC50 (human JAK2) was 1.3 nM.
Molecule `CS(=O)(=O)c1cccc(-c2cccc3nc(Nc4ccc(N5CCOCC5)cc4)nn23)c1` [Example 78, [5-(3-Methanesulfonyl-phenyl)-[1,2,4]triazolo[1,5-a]pyridin-2-yl]-(4-morpholin-4-yl-phenyl)-amine] has an IC50 (human FAK) of 1530 nM and an IC50 (human JAK2) of 3.2 nM.
In the case of `CN1CCN(c2ccc(Nc3nc4cccc(-c5ccc(S(C)(=O)=O)cc5)n4n3)cc2)CC1` [Example 81, [5-(4-Methanesulfonyl-phenyl)-[1,2,4]triazolo[1,5-a]pyridin-2-yl]-[4-(4-methyl-piperazin-1-yl)-phenyl]-amine], the IC50 (human FAK) is reported as 421 nM and the IC50 (human JAK2) is reported as 6.9 nM.
`CN1CCN(c2ccc(Nc3nc4cccc(-c5cccc(S(C)(=O)=O)c5)n4n3)cc2)CC1` [Example 82, [5-(3-Methanesulfonyl-phenyl)-[1,2,4]triazolo[1,5-a]pyridin-2-yl]-[4-(4-methyl-piperazin-1-yl)-phenyl]-amine] was tested, and the IC50 (human FAK) was 584 nM and the IC50 (human JAK2) was 9.2 nM.
For `CN1CCN(c2ccc(Nc3nc4cccc(-c5cccc(NS(C)(=O)=O)c5)n4n3)cc2)CC1` [Example 83, N-(3-{2-[4-(4-Methyl-piperazin-1-yl)-phenylamino]-[1,2,4]triazolo[1,5-a]pyridin-5-yl}-phenyl)-methanesulfonamide], the IC50 (human FAK) was 553 nM and the IC50 (human JAK2) was 19 nM.
Molecule `CN1CCN(c2ccc(Nc3nc4cccc(-c5ccc(NS(C)(=O)=O)cc5)n4n3)cc2)CC1` [Example 84, N-(4-{2-[4-(4-Methyl-piperazin-1-yl)-phenylamino]-[1,2,4]triazolo[1,5-a]pyridin-5-yl}-phenyl)-methanesulfonamide] has an IC50 (human FAK) of 2280 nM and an IC50 (human JAK2) of 2.8 nM.
For `CN1CCN(Cc2ccc(Nc3nc4cccc(-c5ccc(S(C)(=O)=O)cc5)n4n3)cc2)CC1` [Example 86, [5-(4-Methanesulfonyl-phenyl)-[1,2,4]triazolo[1,5-a]pyridin-2-yl]-[4-(4-methyl-piperazin-1-ylmethyl)-phenyl]-amine], the IC50 (human FAK) was 264 nM and the IC50 (human JAK2) was 1.7 nM.
`CN1CCN(Cc2ccc(Nc3nc4cccc(-c5cccc(S(C)(=O)=O)c5)n4n3)cc2)CC1` [Example 88, [5-(3-Methanesulfonyl-phenyl)-[1,2,4]triazolo[1,5-a]pyridin-2-yl]-[4-(4-methyl-piperazin-1-ylmethyl)-phenyl]-amine] gave an IC50 (human FAK) of 1030 nM and an IC50 (human JAK2) of 11.7 nM.
`CN1CCN(c2ccc(NC(=O)Nc3nc4cccc(-c5cccc(S(C)(=O)=O)c5)n4n3)cc2)CC1` [Example 89, 1-[5-(3-Methanesulfonyl-phenyl)-[1,2,4]triazolo[1,5-a]pyridin-2-yl]-3-[4-(4-methyl-piperazin-1-yl)-phenyl]-urea] gave an IC50 (human FAK) of 8830 nM and an IC50 (human JAK2) of 230 nM.
`COc1ccc(Nc2nc3cccc(-c4ccc(S(C)(=O)=O)cc4)n3n2)cc1` [Example 91, [5-(4-Methanesulfonyl-phenyl)-[1,2,4]triazolo[1,5-a]pyridin-2-yl]-(4-methoxy-phenyl)-amine] gave an IC50 (human FAK) of 2600 nM and an IC50 (human JAK2) of 1.9 nM.
`CN1CCN(c2cccc(Nc3nc4cccc(-c5ccc(S(C)(=O)=O)cc5)n4n3)c2)CC1` [Example 92, [5-(4-Methanesulfonyl-phenyl)-[1,2,4]triazolo[1,5-a]pyridin-2-yl]-[3-(4-methyl-piperazin-1-yl)-phenyl]-amine] was tested, and the IC50 (human FAK) was 1270 nM and the IC50 (human JAK2) was 2.8 nM.
For `CS(=O)(=O)c1ccc(-c2cccc3nc(Nc4cccc(S(C)(=O)=O)c4)nn23)cc1` [Example 94, (3-Methanesulfonyl-phenyl)-[5-(4-methanesulfonyl-phenyl)-[1,2,4]triazolo[1,5-a]pyridin-2-yl]-amine], the IC50 (human FAK) was 3000 nM and the IC50 (human JAK2) was 9.3 nM.
`COc1ccc(Nc2nc3cccc(-c4ccc(CN5CCS(=O)(=O)CC5)cc4)n3n2)cc1` [Example 95, 5-{4-[(1,1-dioxidothiomorpholin-4-yl)methyl]phenyl}-N-(4-methoxyphenyl)[1,2,4]triazolo[1,5-a]pyridin-2-amine] gave an IC50 (human FAK) of 2000 nM and an IC50 (human JAK2) of 1 nM.
`CN1CCN(c2ccc(Nc3nc4c(-c5ccc(S(C)(=O)=O)cc5)cc(C(F)(F)F)cn4n3)cn2)CC1` [Example 104, [8-(4-Methanesulfonyl-phenyl)-6-trifluoromethyl-[1,2,4]triazolo[1,5-a]pyridin-2-yl]-[6-(4-methyl-piperazin-1-yl)-pyridin-3-yl]-amine] showed an IC50 (human FAK) of 669 nM and an IC50 (human JAK2) of 928 nM.
For `CN1CCN(c2cccc(N(c3cccc(N4CCN(C)CC4)c3)c3nc4c(-c5ccc(S(C)(=O)=O)cc5)cc(F)cn4n3)c2)CC1` [Example 105, [6-Fluoro-8-(4-methanesulfonyl-phenyl)-[1,2,4]triazolo[1,5-a]pyridin-2-yl]-bis-[3-(4-methyl-piperazin-1-yl)-phenyl]-amine], the IC50 (human FAK) was 1050 nM and the IC50 (human JAK2) was 324 nM.
With `CN1CCN(c2ccc(Nc3nc4c(-c5ccc(S(C)(=O)=O)cc5)cc(F)cn4n3)cc2)CC1` [Example 106, [6-Fluoro-8-(4-methanesulfonyl-phenyl)-[1,2,4]triazolo[1,5-a]pyridin-2-yl]-[4-(4-methyl-piperazin-1-yl)-phenyl]-amine] the IC50 (human FAK) was 3000 nM and the IC50 (human JAK2) was 31.6 nM.
Molecule `CN1CCN(c2cccc(Nc3nc4cncc(-c5ccc(S(C)(=O)=O)cc5)n4n3)c2)CC1` [Example 107, [5-(4-Methanesulfonyl-phenyl)-[1,2,4]triazolo[1,5-a]pyrazin-2-yl]-[3-(4-methyl-piperazin-1-yl)-phenyl]-amine] has an IC50 (human FAK) of 855 nM and an IC50 (human JAK2) of 307 nM.
For `CN1CCN(c2cccc(Nc3nc4c(Nc5cccc(S(C)(=O)=O)c5)cccn4n3)c2)CC1` [Example 110, N(8)-(3-Methanesulfonyl-phenyl)-N(2)-[3-(4-methyl-piperazin-1-yl)-phenyl]-[1,2,4]triazolo[1,5-a]pyridine-2,8-diamine], the IC50 (human FAK) was 3000 nM and the IC50 (human JAK2) was 1310 nM.
`CN1CCN(c2cccc(Nc3nc4c(Nc5cccnc5N(C)S(C)(=O)=O)cccn4n3)c2)CC1` [Example 111, N-Methyl-N-(3-{2-[3-(4-methyl-piperazin-1-yl)-phenylamino]-[1,2,4]triazolo[1,5-a]pyridin-8-ylamino}-pyridin-2-yl)-methanesulfonamide] was tested, and the IC50 (human FAK) was 2000 nM and the IC50 (human JAK2) was 60.3 nM.
For `CS(=O)(=O)c1ccc(Nc2nc3c(-c4ccc(S(C)(=O)=O)cc4)cccn3n2)cc1` [Example 112, (4-Methanesulfonyl-phenyl)-[8-(4-methanesulfonyl-phenyl)-[1,2,4]triazolo[1,5-a]pyridin-2-yl]-amine], the IC50 (human FAK) was 531 nM and the IC50 (human JAK2) was 1.3 nM.
`CS(=O)(=O)c1ccc(-c2cccn3nc(Nc4cccc(S(C)(=O)=O)c4)nc23)cc1` [Example 113, (3-Methanesulfonyl-phenyl)-[8-(4-methanesulfonyl-phenyl)-[1,2,4]triazolo[1,5-a]pyridin-2-yl]-amine] showed an IC50 (human FAK) of 693 nM and an IC50 (human JAK2) of 5.57 nM.
`CS(=O)(=O)c1ccc(-c2cccn3nc(Nc4ccc(CN5CCS(=O)(=O)CC5)cc4)nc23)cc1` [Example 114, N-{4-[(1,1-dioxidothiomorpholin-4-yl)methyl]phenyl}-8-[4-(methylsulfonyl)phenyl][1,2,4]triazolo[1,5-a]pyridin-2-amine] showed an IC50 (human FAK) of 1480 nM and an IC50 (human JAK2) of 0.75 nM.
Molecule `CS(=O)(=O)c1ccc(-c2cccc3nc(Nc4ccc(CN5CCS(=O)(=O)CC5)cc4)nn23)cc1` [Example 115, N-{4-[(1,1-dioxidothiomorpholin-4-yl)methyl]phenyl}-5-[4-(methylsulfonyl)phenyl][1,2,4]triazolo[1,5-a]pyridin-2-amine] has an IC50 (human FAK) of 1050 nM and an IC50 (human JAK2) of 0.66 nM.
With `CN1CCN(Cc2cccc(Nc3nc4c(-c5ccc(S(C)(=O)=O)cc5)cccn4n3)c2)CC1` [Example 116, [8-(4-Methanesulfonyl-phenyl)-[1,2,4]triazolo[1,5-a]pyridin-2-yl]-[3-(4-methyl-piperazin-1-ylmethyl)-phenyl]-amine] the IC50 (human FAK) was 3000 nM and the IC50 (human JAK2) was 3.07 nM.
`CS(=O)(=O)c1ccc(-c2cccc3nc(Nc4cccc(CN5CCOCC5)c4)nn23)cc1` [Example 117, [5-(4-Methanesulfonyl-phenyl)-[1,2,4]triazolo[1,5-a]pyridin-2-yl]-(3-morpholin-4-ylmethyl-phenyl)-amine] gave an IC50 (human FAK) of 1470 nM and an IC50 (human JAK2) of 0.95 nM.
`CN1CCN(Cc2cccc(Nc3nc4cccc(-c5ccc(S(C)(=O)=O)cc5)n4n3)c2)CC1` [Example 118, [5-(4-Methanesulfonyl-phenyl)-[1,2,4]triazolo[1,5-a]pyridin-2-yl]-[3-(4-methyl-piperazin-1-ylmethyl)-phenyl]-amine] was tested, and the IC50 (human FAK) was 2860 nM and the IC50 (human JAK2) was 1.43 nM.
`CN(c1ccc(-c2cccn3nc(Nc4ccc(CN5CCS(=O)(=O)CC5)cc4)nc23)cc1)S(C)(=O)=O` [Example 119, N-{4-[2-({4-[(1,1-dioxidothiomorpholin-4-yl)methyl]phenyl}amino)[1,2,4]triazolo[1,5-a]pyridin-8-yl]phenyl}-N-methylmethanesulfonamide] gave an IC50 (human FAK) of 10000 nM and an IC50 (human JAK2) of 0.27 nM.
`CS(=O)(=O)c1ccc(-c2cccn3nc(Nc4cccc(CN5CCS(=O)(=O)CC5)c4)nc23)cc1` [Example 120, N-{3-[(1,1-dioxidothiomorpholin-4-yl)methyl]phenyl}-8-[4-(methylsulfonyl)phenyl][1,2,4]triazolo[1,5-a]pyridin-2-amine] was tested, and the IC50 (human FAK) was 2000 nM and the IC50 (human JAK2) was 0.67 nM.
